# Test results as given in paper PMC11791039, “A split intein and split luciferase-coupled system for detecting protein-protein interactions” (Molecular Systems Biology, 2024).
# Several values for one entry are separate records, joined by “and”; a condition that tells them apart may be missing. Identical values can stand only once. Like-named read-outs stand apart in the source and are kept apart here. Residues, ends and D or L forms follow the SMILES beside them. *: point of attachment. Cbz = O=C(OCc1ccccc1)*
# Key:
# BRD4/CRBN interaction = target: T1, BRD4/CRBN interaction (Homo sapiens, UniProt O60885+Q96SW2); assay: SIMPL2 assay CRBN/BRD4 (PROTAC); format: cell-based; details: MG132 1 μM, ARV-825 3 h
# T1 construct: β10-IN (tNLuc β10 peptide + GP41-1 split intein N fragment) (N); V5; IC-β9 (GP41-1 split intein C fragment + tNLuc β9 peptide) (N); FLAG; expressed in transfected cells
# FRB/FKBP1A interaction [1] = target: T2, FRB/FKBP1A interaction (Homo sapiens, UniProt P42345+P62942); assay: SIMPL2 assay, rapamycin-mediated FRB/FKBP1A interaction; details: for SIMPL2 signal (Fig. EV1B): IN/IC format, replicates 1-4; for SIMPL2(%) (Fig. EV1C): NIN/IC format, replicates 1-3; for SIMPL2 signal (Fig. 1D source data): 2 h, expt 1-4
# FRB/FKBP1A interaction [2] = target: T2, FRB/FKBP1A interaction; design: method as in previous study; details: replicates 1-4, ref previous study, cited from earlier work; for ELISA signal (Fig. EV1B): IN/IC format; for ELISA_CIC signal (Fig. EV1C): NIN/IC format
# FRB/FKBP1A interaction [3] = target: T2, FRB/FKBP1A interaction; assay: NanoBiT assay, rapamycin-mediated FRB/FKBP1A interaction; format: cell-based; details: 2 h, expt 1-4
# T2 sequence (P42345 2012-2144 limits assumed): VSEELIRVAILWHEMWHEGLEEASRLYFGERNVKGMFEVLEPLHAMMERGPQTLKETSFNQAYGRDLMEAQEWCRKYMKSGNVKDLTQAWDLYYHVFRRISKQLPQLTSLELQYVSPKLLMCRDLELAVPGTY
# T2 sequence (P62942 whole entry): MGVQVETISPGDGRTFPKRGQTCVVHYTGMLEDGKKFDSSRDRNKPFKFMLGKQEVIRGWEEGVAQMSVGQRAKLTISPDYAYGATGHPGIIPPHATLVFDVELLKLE
# T1 sequence (Q96SW2 whole entry, the tested form may be a part): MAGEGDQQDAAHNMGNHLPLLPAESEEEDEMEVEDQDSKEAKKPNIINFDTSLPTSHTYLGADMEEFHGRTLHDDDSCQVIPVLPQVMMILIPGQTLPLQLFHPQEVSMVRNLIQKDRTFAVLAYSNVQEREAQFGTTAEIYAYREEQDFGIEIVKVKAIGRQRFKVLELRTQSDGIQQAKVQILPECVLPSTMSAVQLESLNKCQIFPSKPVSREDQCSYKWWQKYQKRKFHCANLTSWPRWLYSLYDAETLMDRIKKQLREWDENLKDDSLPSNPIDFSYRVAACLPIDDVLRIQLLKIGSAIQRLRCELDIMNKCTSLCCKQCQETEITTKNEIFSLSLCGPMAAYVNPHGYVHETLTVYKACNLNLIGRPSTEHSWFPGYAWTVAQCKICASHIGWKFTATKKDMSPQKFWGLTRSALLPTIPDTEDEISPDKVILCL
# T1 sequence (Q16531 whole entry, further chain, the tested form may be a part): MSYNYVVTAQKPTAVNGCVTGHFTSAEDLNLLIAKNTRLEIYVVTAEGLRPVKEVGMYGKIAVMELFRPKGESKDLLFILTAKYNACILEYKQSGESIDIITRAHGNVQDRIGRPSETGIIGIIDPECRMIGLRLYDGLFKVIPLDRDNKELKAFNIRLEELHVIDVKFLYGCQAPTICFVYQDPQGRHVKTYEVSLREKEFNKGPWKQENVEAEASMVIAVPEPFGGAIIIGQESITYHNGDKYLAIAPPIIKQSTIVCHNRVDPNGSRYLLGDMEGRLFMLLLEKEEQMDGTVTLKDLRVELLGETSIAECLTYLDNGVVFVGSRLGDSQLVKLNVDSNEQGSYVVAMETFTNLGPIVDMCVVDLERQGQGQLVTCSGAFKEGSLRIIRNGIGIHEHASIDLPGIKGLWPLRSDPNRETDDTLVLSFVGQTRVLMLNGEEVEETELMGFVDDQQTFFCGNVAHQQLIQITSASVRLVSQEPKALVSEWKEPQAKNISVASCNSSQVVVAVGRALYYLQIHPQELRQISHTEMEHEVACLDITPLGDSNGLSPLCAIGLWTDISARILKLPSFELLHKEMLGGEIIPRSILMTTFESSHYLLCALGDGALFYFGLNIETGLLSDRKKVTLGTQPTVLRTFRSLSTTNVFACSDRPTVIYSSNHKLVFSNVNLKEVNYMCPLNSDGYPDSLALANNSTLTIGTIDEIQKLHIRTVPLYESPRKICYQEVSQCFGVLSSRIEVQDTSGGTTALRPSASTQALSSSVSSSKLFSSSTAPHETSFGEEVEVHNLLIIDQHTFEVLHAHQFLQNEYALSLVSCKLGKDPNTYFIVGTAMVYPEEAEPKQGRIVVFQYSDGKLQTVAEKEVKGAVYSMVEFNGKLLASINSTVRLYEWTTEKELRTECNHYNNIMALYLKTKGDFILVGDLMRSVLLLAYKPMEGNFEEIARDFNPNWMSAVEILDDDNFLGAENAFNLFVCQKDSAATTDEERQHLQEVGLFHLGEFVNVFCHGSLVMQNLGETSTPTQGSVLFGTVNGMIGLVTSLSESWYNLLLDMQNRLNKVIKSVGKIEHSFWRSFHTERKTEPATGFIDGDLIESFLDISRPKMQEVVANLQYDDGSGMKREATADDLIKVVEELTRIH
structure (smiles),measurement,setting,value
CC(C)C[C@@H](C=O)NC(=O)[C@H](CC(C)C)NC(=O)[C@H](CC(C)C)NC(=O)OCc1ccccc1 [MG132] (Cbz-Leu-Leu-Leu-aldehyde),effect of MG132 co-treatment on ARV-825 SIMPL2 signals,BRD4/CRBN interaction,profoundly enhanced
"CO[C@H]1C[C@@H]2CC[C@@H](C)[C@@](O)(O2)C(=O)C(=O)N2CCCC[C@H]2C(=O)O[C@H]([C@H](C)C[C@@H]2CC[C@@H](O)[C@H](OC)C2)CC(=O)[C@H](C)/C=C(\C)[C@@H](O)[C@@H](OC)C(=O)[C@H](C)C[C@H](C)/C=C/C=C/C=C/1C [rapamycin, Rapamycin]",SIMPL2 signal (Fig. EV1B),FRB/FKBP1A interaction [1]; Rapa 0.0508 nM,1.191 and 2.558 and 1.039 and 2.309
same,SIMPL2 signal (Fig. EV1B),FRB/FKBP1A interaction [1]; Rapa 0.152 nM,2.258 and 4.019 and 1.902 and 3.528
same,SIMPL2 signal (Fig. EV1B),FRB/FKBP1A interaction [1]; Rapa 0.457 nM,5.806 and 9.209 and 5.031 and 7.8055
same,SIMPL2 signal (Fig. EV1B),FRB/FKBP1A interaction [1]; Rapa 1.372 nM,16.8705 and 22.7506 and 15.2406 and 19.2387
same,SIMPL2 signal (Fig. EV1B),FRB/FKBP1A interaction [1]; Rapa 4.115 nM,40.6804 and 51.3157 and 39.8638 and 45.1426
same,SIMPL2 signal (Fig. EV1B),FRB/FKBP1A interaction [1]; Rapa 37.037 nM,89.8203 and 93.2241 and 91.2356 and 88.6383
same,SIMPL2 signal (Fig. EV1B),FRB/FKBP1A interaction [1]; Rapa 111.111 nM,100.397 and 91.658 and 100.471 and 94.6121
same,SIMPL2 signal (Fig. EV1B),FRB/FKBP1A interaction [1]; Rapa 333.333 nM,99.7113 and 97.9264 and 105.182 and 96.7419
same,SIMPL2 signal (Fig. EV1B),FRB/FKBP1A interaction [1]; Rapa 1000 nM,92.6509 and 96.5256 and 102.635 and 100.443
same,SIMPL2(%) (Fig. EV1C),FRB/FKBP1A interaction [1]; Rapa 0.00188 nM,0.8086% (2×) and 0.8386%
same,SIMPL2(%) (Fig. EV1C),FRB/FKBP1A interaction [1]; Rapa 0.00565 nM,0.599% and 0.6888% and 0.7487%
same,SIMPL2(%) (Fig. EV1C),FRB/FKBP1A interaction [1]; Rapa 0.0508 nM,0.9284% and 1.198% and 0.7188%
same,SIMPL2(%) (Fig. EV1C),FRB/FKBP1A interaction [1]; Rapa 0.152 nM,1.108% and 1.6472% and 0.8685%
same,SIMPL2(%) (Fig. EV1C),FRB/FKBP1A interaction [1]; Rapa 0.457 nM,4.972% and 3.534% and 2.636%
same,SIMPL2(%) (Fig. EV1C),FRB/FKBP1A interaction [1]; Rapa 1.372 nM,23.3303% and 15.2441% and 11.9197%
same,SIMPL2(%) (Fig. EV1C),FRB/FKBP1A interaction [1]; Rapa 4.115 nM,44.1749% and 37.1968% and 29.3801%
same,SIMPL2(%) (Fig. EV1C),FRB/FKBP1A interaction [1]; Rapa 37.037 nM,91.9736% and 88.0503% and 89.0686%
same,SIMPL2(%) (Fig. EV1C),FRB/FKBP1A interaction [1]; Rapa 111.111 nM,100.449% and 91.6442% and 102.935%
same,SIMPL2(%) (Fig. EV1C),FRB/FKBP1A interaction [1]; Rapa 333.333 nM,113.267% and 99.5508% and 95.867%
same,SIMPL2(%) (Fig. EV1C),FRB/FKBP1A interaction [1]; Rapa 1000 nM,95.5076% and 93.0518% and 96.2564%
same,SIMPL2 signal (Fig. 1D source data),FRB/FKBP1A interaction [1]; Rapa 0.004115 uM,47.8958 and 45.8282 and 46.7693 and 41.1245
same,SIMPL2 signal (Fig. 1D source data),FRB/FKBP1A interaction [1]; Rapa 0.037037 uM,84.8088 and 98.4637 and 120.48 and 94.9462
same,SIMPL2 signal (Fig. 1D source data),FRB/FKBP1A interaction [1]; Rapa 0.111111 uM,73.556 and 88.7889 and 90.3886 and 92.8218
same,SIMPL2 signal (Fig. 1D source data),FRB/FKBP1A interaction [1]; Rapa 0.333333 uM,97.7898 and 102.816 and 106.133 and 97.0409
same,SIMPL2 signal (Fig. 1D source data),FRB/FKBP1A interaction [1]; Rapa 1 uM,104.171 and 101.443 and 85.3933 and 107.112
same,ELISA signal (Fig. EV1B),FRB/FKBP1A interaction [2]; Rapa 0.316 nM,14.411 and 5.166 and 5.566 and 4.9879
same,ELISA signal (Fig. EV1B),FRB/FKBP1A interaction [2]; Rapa 1 nM,5.323 and 5.028 and 5.963 and 6.1023
same,ELISA signal (Fig. EV1B),FRB/FKBP1A interaction [2]; Rapa 3.162 nM,8.457 and 7.647 and 8.056 and 8.736
same,ELISA signal (Fig. EV1B),FRB/FKBP1A interaction [2]; Rapa 10 nM,15.9974 and 15.1146 and 16.574 and 16.0467
same,ELISA signal (Fig. EV1B),FRB/FKBP1A interaction [2]; Rapa 31.623 nM,37.8238 and 37.9493 and 40.1437 and 41.1072
same,ELISA signal (Fig. EV1B),FRB/FKBP1A interaction [2]; Rapa 100 nM,80.3098 and 67.0371 and 79.2492 and 77.5358
same,ELISA signal (Fig. EV1B),FRB/FKBP1A interaction [2]; Rapa 316.228 nM,106.072 and 95.5962 and 92.0797 and 90.9967
same,ELISA signal (Fig. EV1B),FRB/FKBP1A interaction [2]; Rapa 1000 nM,102.194 and 105.027 and 90.2049 and 93.6363
same,ELISA_CIC signal (Fig. EV1C),FRB/FKBP1A interaction [2]; Rapa 0.3 nM,3.444 and 2.886 and 2.936 and 2.873
same,ELISA_CIC signal (Fig. EV1C),FRB/FKBP1A interaction [2]; Rapa 1 nM,3.091 and 2.372 and 3.062 and 3.035
same,ELISA_CIC signal (Fig. EV1C),FRB/FKBP1A interaction [2]; Rapa 3 nM,3.502 and 3.836 and 3.666 and 4.333
same,ELISA_CIC signal (Fig. EV1C),FRB/FKBP1A interaction [2]; Rapa 10 nM,6.943 and 6.073 and 6.559 and 6.143
same,ELISA_CIC signal (Fig. EV1C),FRB/FKBP1A interaction [2]; Rapa 30 nM,20.4969 and 16.4946 and 19.9923 and 21.7284
same,ELISA_CIC signal (Fig. EV1C),FRB/FKBP1A interaction [2]; Rapa 100 nM,72.9918 and 58.0659 and 78.6932 and 64.2948
same,ELISA_CIC signal (Fig. EV1C),FRB/FKBP1A interaction [2]; Rapa 300 nM,105.102 and 112.879 and 88.9461
same,ELISA_CIC signal (Fig. EV1C),FRB/FKBP1A interaction [2]; Rapa 1000 nM,95.1776 and 93.559 and 93.0646 and 80.9326
same,NanoBiT signal (Fig. 1D source data),FRB/FKBP1A interaction [3]; Rapa 0.004115 uM,43.0075 and 49.8338 and 39.8143 and 26.5473
same,NanoBiT signal (Fig. 1D source data),FRB/FKBP1A interaction [3]; Rapa 0.037037 uM,98.7034 and 104.835 and 107.555 and 86.8025
same,NanoBiT signal (Fig. 1D source data),FRB/FKBP1A interaction [3]; Rapa 0.111111 uM,98.0138 and 85.7365 and 105.867 and 81.894
same,NanoBiT signal (Fig. 1D source data),FRB/FKBP1A interaction [3]; Rapa 0.333333 uM,102.818 and 83.4071 and 80.4272 and 114.561
same,NanoBiT signal (Fig. 1D source data),FRB/FKBP1A interaction [3]; Rapa 1 uM,95.0191 and 104.766 and 93.7327 and 91.3484
